# Results as given in patent US4544512A, “Tridecyloxy- or tetradecyloxy-propane derivatives” (Takeda Chemical Industries, Ltd., priority 1980, dated 1985).
# Where two headings read alike, the source gives them in different places.
# Assays:
# Format in all cases: cell-based
# [1] = system: Cryptococcus unigtullatas; assay: Antimycotic activity, paper disk inhibition zone; conditions: 48 h, concentration of 3 mg/ml, paper disk 8 mm, 37° C., 2 days, read-out: Inhibition zone diameters
# Experimental: Referring to the antimycotic activity presented in Table 5, Cryptococcus unigtullatas and others were used as the test microbes, a paper disk (8 mm in diameter) was immersed in an aqueous solution of each test compound having a concentration of 3 mg/ml, air dried and placed on an agar medium, then incubation was conducted at 37° C. for 2 days, and the diameter (mm) of the inhibition zone was measured.
# Tetrahymena pyriformis W = assay: Antiprotozoal activity, broth dilution method (MIC); conditions: 28° C., 44-48 hours, read-out: MIC against Tetrahymena pyriformis W
# Experimental: Referring to the antiprotozoal activity given in Table 4, the microbial growth inhibiting activity (MIC) of each compound of this invention was assayed by the broth dilution method by incubating Tetrahymena pyriformis W strain as the test organism at 28° C. for 44-48 hours, using a test culture medium comprising 20 g of Tryptose peptine (Difco), 1 g of yeast extract, 2 g of glucose. 1,000 ml of distilled water and 10 ml of 1M phosphate buffer (pH 7.0).
# [2] = system: Trichophyton rubrum IFO 5467 (DT-63); assay: Antitrichophyton activity, serial dilution method (MIC); conditions: IFO5467, Sabouraud's agar medium
# Experimental: (§1) Referring to the antitrichophyton activity shown in Table 7, MIC values of tested compounds were determined by the serial dilution method using Sabouraud's agar medium.
# [3] = system: Trichophyton mentagrophytes IFO (DT-66); assay: as above; conditions: Sabouraud's agar medium
# Experimental: as §1
# Alternaria solani = assay: Antifungal activity, serial dilution method (MIC); conditions: 1% glucose-bouillon agar medium, read-out: MIC Alternaria solani (potato early blight)
# Cochliobolus miyabeanus = assay: Antifungal activity, serial dilution method (MIC); conditions: Bipolaris oryzae, read-out: MIC Cochliobolus miyabeanus (rice Helminthosporium leaf spot)
# Botrytis cinerea = assay: Antifungal activity, serial dilution method (MIC); conditions: read-out: MIC Botrytis cinerea (gray mold)
# Leptosphaeria salvinii = assay: Antifungal activity, serial dilution method (MIC); conditions: Nakataea oryzae; 1% glucose-bouillon agar medium; read-out: MIC Leptosphaeria salvinii (rice stem rot)
# Gibberella fujikuroi = assay: Antifungal activity, serial dilution method (MIC); conditions: Fusarium fujikuroi; 1% glucose-bouillon agar medium; read-out: MIC Gibberella fujikuroi (rice Bakanae-disease)
# [4] = system: Colletotrichum lagenarium; assay: Antifungal activity, serial dilution method (MIC); conditions: Colletotrichum orbiculare, read-out: MIC Colletotrichum lagenarium (cucumber anthracnose)
# Pyricularia oryzae = assay: microbe, parasite or virus in culture; conditions: read-out: MIC Pyricularia oryzae (rice blast)
# [5] = system: mouse myeloid leukemia M1 cells; assay: Induced differentiation of mouse myeloid leukemia M1 cells; conditions: at optimal dose: C00019 1 μg/ml, drawing 20 2 μg/ml
# Experimental: By employing soft-agar medium having similar components to those in Test Example 1, incubation of myeloid leukemia (M1) cells harvested from mice was conducted in the presence of the test compound in its optimal concentration. Observation on various biological and biochemical properties caused by induced differentiation was conducted. In Table 2 are given the results obtained by determination of the degree of the induced differentiation employing, as the indexes, among those properties, morphological changes (matured granulocytes, matured macrophages, others caused by changes in appearance of cells at the stage of differentiation),phagocytic activity (plastic small pieces.phagocytosis) and lysozyme activity. Additionally stating, these morphological changes were not observed under the conditions devoid of the drugs.
# [6] = 1% glucose-bouillon agar medium
smiles,measurement,setting,value
CCCCCCCCCCCCCCOCC(COP(=O)(O)OCCN)OC (centres unmarked) [drawing 28 R = C14 H29],zone of inhibition at 3000 µg/mL,[1],13.5 mm
CCCCCCCCCCCCCOCCCOP(=O)(O)OCCN [drawing 26 R = C13 H27],MIC,Tetrahymena pyriformis W,0.4 µg/mL
"CCCCCCCCCCCCCCOCC(COP(=O)([O-])OCC[N+](C)(C)C)OC (centres unmarked) [R = C14 H29, A = drawing 35]",MIC,[2],1.56 µg/mL
same,MIC,[3],3.12 µg/mL
CCCCCCCCCCCCCCOCC(COP(=O)(O)OCCN)OC (centres unmarked) [drawing 24 R = C14 H29],MIC,Tetrahymena pyriformis W,2 µg/mL
CCCCCCCCCCCCCCCCCCOCCCOP(=O)([O-])OCC[N+](C)(C)C [drawing 25 R = C18 H37],MIC,Tetrahymena pyriformis W,2 to 4 µg/mL
CCCCCCCCCCCCCCOCCCOP(=O)([O-])OCC[N+](C)(C)C [drawing 29 R = C14 H29],zone of inhibition at 3000 µg/mL,[1],21 mm
"CCCCCCCCCCCCCCOCC(COP(=O)([O-])OCC[n+]1ccccc1)OC (centres unmarked) [R = C14 H29, A = drawing 36]",MIC,[2],1.56 µg/mL
same,MIC,[3],3.12 µg/mL
CCCCCCCCCCCCCCOCCCOP(=O)(O)OCCN [drawing 26 R = C14 H29],MIC,Tetrahymena pyriformis W,0.4 µg/mL
CCCCCCCCCCCCCCCCCCOCC(COP(=O)([O-])OCC[N+](C)(C)C)OC (centres unmarked) [drawing 27 R = C18 H37],zone of inhibition at 3000 µg/mL,[1],18 mm
CCCCCCCCCCCCOCC(COP(=O)([O-])OCC[N+](C)(C)C)OC (centres unmarked) [drawing 23 R = C12 H25],MIC,Tetrahymena pyriformis W,0.4 µg/mL
CCCCCCCCCCCCCCOCC(COP(=O)([O-])OCC[N+](C)(C)C)OC (centres unmarked) [drawing 23 R = C14 H29],MIC,Tetrahymena pyriformis W,0.2 µg/mL
CCCCCCCCCCCCOCCCOP(=O)([O-])OCC[N+](C)(C)C [drawing 25 R = C12 H25],MIC,Tetrahymena pyriformis W,1 µg/mL
"CCCCCCCCCCCCCCCCCCOCC(COP(=O)([O-])OCC[N+](C)(C)C)OC (centres unmarked) [Compound (A) R = C18 H37, reference compound]",MIC,Alternaria solani,> 100 µg/mL
same,MIC,Cochliobolus miyabeanus,> 100 µg/mL
same,MIC,Botrytis cinerea; [6],25 µg/mL
same,MIC,Leptosphaeria salvinii,12.5 µg/mL
same,MIC,Gibberella fujikuroi,> 100 µg/mL
same,MIC,[4]; [6],> 100 µg/mL
same,MIC,Pyricularia oryzae,6.25 µg/mL
"CCCCCCCCCCCCOCCCOP(=O)([O-])OCC[N+](C)(C)C [Compound (B) R = C12 H25, reference compound]",MIC,Alternaria solani,50 µg/mL
same,MIC,Cochliobolus miyabeanus,6.25 µg/mL
same,MIC,Botrytis cinerea; [6],25 µg/mL
same,MIC,Leptosphaeria salvinii,25 µg/mL
same,MIC,Gibberella fujikuroi,100 µg/mL
same,MIC,[4],6.25 µg/mL
same,MIC,Pyricularia oryzae,12.5 µg/mL
CCCCCCCCCCCCCOCCCOP(=O)([O-])OCC[N+](C)(C)C [Compound (B) R = C13 H27],MIC,Alternaria solani,25 µg/mL
same,MIC,Cochliobolus miyabeanus,6.25 µg/mL
same,MIC,Botrytis cinerea,6.25 µg/mL
same,MIC,Leptosphaeria salvinii,12.5 µg/mL
same,MIC,Gibberella fujikuroi,25 µg/mL
same,MIC,[4]; [6],1.56 µg/mL
same,MIC,Pyricularia oryzae,6.25 µg/mL
"CCCCCCCCCCCCCCCCCCOCC(COP(=O)([O-])OCC[N+](C)(C)C)OC (centres unmarked) [drawing 19, reference compound]",Phagocytic cells,[5]; None 2.0 %,13.4%
same,Morphological change,[5]; None 2.1 %,34.7%
same,Lysozyme activity,[5]; None 2.2,31.1 units/mg protein
CCCCCCCCCCCCCOCC(COP(=O)([O-])OCC[N+](C)(C)C)OC (centres unmarked) [Compound (A) R = C13 H27],MIC,Alternaria solani,50 µg/mL
same,MIC,Cochliobolus miyabeanus,> 100 µg/mL
same,MIC,Botrytis cinerea,12.5 µg/mL
same,MIC,Leptosphaeria salvinii,6.25 µg/mL
same,MIC,Gibberella fujikuroi,> 100 µg/mL
same,MIC,[4]; [6],6.25 µg/mL
same,MIC,Pyricularia oryzae,12.5 µg/mL
CCCCCCCCCCCCCCCCCCOCCCOP(=O)([O-])OCC[N+](C)(C)C [drawing 29 R = C18 H37],zone of inhibition at 3000 µg/mL,[1],17 mm
"CCCCCCCCCCCCCOCC(COP(=O)([O-])OCC[n+]1ccccc1)OC (centres unmarked) [R = C13 H27, A = drawing 34]",MIC,[2],3.12 µg/mL
same,MIC,[3],12.5 µg/mL
CCCCCCCCCCCCCCCCCCOCCCOP(=O)(O)OCCN [drawing 26 R = C18 H37],MIC,Tetrahymena pyriformis W,4 µg/mL
CCCCCCCCCCCCCOCC(COP(=O)([O-])OCC[N+](C)(C)C)OC (centres unmarked) [drawing 27 R = C13 H27],zone of inhibition at 3000 µg/mL,[1],19 mm
